Laboratory results as given in PubChem BioAssay (NCI).
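Exposure lasted 48 hours, with cells grown in 96-well plates and compounds tested at five concentrations. GI50 = concentration required for 50% inhibition of growth. TGI: total growth inhibition.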

What was measured:
Test in all cases: growth of human tumour cells (NCI), 48 h
HOP-62 NSCLC = system: HOP-62 NSCLC
NCI-H23 lung = system: NCI-H23 lung
CCRF-CEM leukemia = system: CCRF-CEM leukemia
MALME-3M melanoma = system: MALME-3M melanoma
IGROV1 ovarian = system: IGROV1 ovarian
SN12C renal = system: SN12C renal
DU-145 prostate = system: DU-145 prostate
NCI-H226 lung = system: NCI-H226 lung
OVCAR-4 ovarian = system: OVCAR-4 ovarian
SF-268 CNS = system: SF-268 CNS

SMILES	GI50 (HOP-62 NSCLC)	TGI (HOP-62 NSCLC)	GI50 (NCI-H23 lung)	TGI (NCI-H23 lung)	GI50 (CCRF-CEM leukemia)	TGI (CCRF-CEM leukemia)	GI50 (MALME-3M melanoma)	TGI (MALME-3M melanoma)	GI50 (IGROV1 ovarian)	TGI (IGROV1 ovarian)	GI50 (SN12C renal)	TGI (SN12C renal)	GI50 (DU-145 prostate)	TGI (DU-145 prostate)	GI50 (NCI-H226 lung)	TGI (NCI-H226 lung)	GI50 (OVCAR-4 ovarian)	TGI (OVCAR-4 ovarian)	GI50 (SF-268 CNS)	TGI (SF-268 CNS)
O=C1c2ccccc2C(=O)c2c(NCCN=Cc3ccccc3O)cccc21	6.61 µM	52.3 µM	12.4 µM	> 100 µM	1.43 µM	3.88 µM	1.55 µM	3.84 µM	2.57 µM	10.3 µM	8.28 µM	> 54.1 µM	2.22 µM	7.66 µM	7.97 µM	> 38.2 µM	2.79 µM	> 22.9 µM	2.7 µM	14.9 µM
O=C(NC1CCCCC1)c1ccc(Nc2ncnc3c2cnn3-c2ccccc2)cc1	2.62 µM	8.77 µM	10.9 µM	89.9 µM	> 100 µM	> 100 µM	1.97 µM	4.94 µM	14.4 µM	65.9 µM	8.26 µM	> 100 µM	10.6 µM	48.1 µM	3.35 µM	21.5 µM	–	–	5.85 µM	> 100 µM
Cc1ccc2occ/c(=N\Nc3ccccc3)c2c1	–	> 100 µM	–	> 100 µM	–	> 100 µM	–	> 100 µM	–	> 100 µM	–	> 100 µM	–	> 100 µM	–	> 100 µM	–	> 100 µM	–	> 100 µM
O=C(CCN1CCOCC1)Nc1cccc(-n2cc(-c3ccncc3)c(-c3ccc(Cl)c(O)c3)n2)c1	2.23 µM	13.5 µM	3.04 µM	18.6 µM	3.43 µM	15.9 µM	1.65 µM	10.8 µM	3.52 µM	21.5 µM	3.74 µM	23.6 µM	2.49 µM	11.7 µM	4.98 µM	21.4 µM	3.07 µM	17.7 µM	2.81 µM	14.4 µM
Cc1noc2c1-c1ccccc1C(c1ccc(Cl)cc1)=N[C@H]2CC(N)=O	2.6 µM	> 100 µM	5.31 µM	> 100 µM	14.8 µM	> 100 µM	5.17 µM	> 100 µM	6.03 µM	> 100 µM	38.2 µM	> 100 µM	79.3 µM	> 100 µM	11.6 µM	> 100 µM	4.35 µM	> 100 µM	33.8 µM	> 100 µM
CNC(C)[C@H]1CCC2C3CC=C4C(=O)[C@@H](NC(=O)C=C(C)C)CC[C@]4(C)C3CC[C@@]21C (some centres undefined)	1.7 µM	3.63 µM	2.37 µM	12.2 µM	1.77 µM	7.8 µM	1.64 µM	3.47 µM	3.19 µM	11.8 µM	2.46 µM	10.5 µM	4.53 µM	16.9 µM	2.53 µM	14.1 µM	2.22 µM	17.9 µM	1.6 µM	3.66 µM
COc1ccc(-c2noc(N)c2-c2cc(OC)c3c(c2)OCO3)cc1	3.19 µM	> 100 µM	3.17 µM	> 83.1 µM	1.45 µM	> 35.8 µM	9.66 µM	> 100 µM	6.8 µM	> 100 µM	4.14 µM	> 100 µM	3.42 µM	> 90.9 µM	18 µM	> 100 µM	24.3 µM	> 100 µM	5.47 µM	98.9 µM
C=C1C(=O)OC2C1CC(OC(C)=O)/C(C)=C/CCC1(C)OC21 (centres undefined)	–	–	–	> 100 µM	–	> 100 µM	–	> 100 µM	–	> 100 µM	–	> 100 µM	–	> 100 µM	–	> 100 µM	–	> 100 µM	–	> 100 µM
Clc1nc(Cl)c2ncn(Cc3ccccc3Cn3cnc4c(Cl)nc(Cl)nc43)c2n1	9.11 µM	19.3 µM	5.26 µM	10.7 µM	1.42 µM	3.14 µM	0.211 µM	6.18 µM	3.14 µM	8.46 µM	2.31 µM	7.24 µM	1.21 µM	2.65 µM	2.76 µM	7.16 µM	2 µM	4.05 µM	3.05 µM	12.3 µM
NCCCOc1cc(Cl)ccc1NC(=O)c1cc2ccccc2cc1OCCCN	1.26 µM	2.59 µM	1.51 µM	3.03 µM	0.469 µM	2.54 µM	1.65 µM	3.59 µM	0.678 µM	2.28 µM	1.58 µM	3.23 µM	1.58 µM	2.95 µM	1.22 µM	2.62 µM	1.51 µM	2.91 µM	1.29 µM	2.63 µM
COc1cc2c3c(n(CCCN(CCO)CCO)c(=O)c2cc1OC)-c1cc2c(cc1C3=O)OCO2	< 0.01 µM	–	< 0.01 µM	0.139 µM	< 0.01 µM	–	0.67 µM	23.4 µM	–	> 100 µM	< 0.01 µM	0.285 µM	< 0.01 µM	1.27 µM	0.0377 µM	0.724 µM	0.842 µM	3.61 µM	< 0.0332 µM	7.26 µM
Cn1cc(-c2csc(-c3cn(C)c4ccc(F)cc34)n2)c2cnccc21	1.92 µM	3.49 µM	1.94 µM	3.58 µM	1.96 µM	4.13 µM	1.97 µM	3.57 µM	1.96 µM	3.63 µM	1.7 µM	3.14 µM	1.74 µM	3.16 µM	2.05 µM	4.26 µM	1.7 µM	3.16 µM	1.93 µM	3.79 µM
Oc1ccc(Oc2cnc3ccccc3n2)cc1	> 100 µM	> 100 µM	> 100 µM	> 100 µM	24.2 µM	> 100 µM	> 100 µM	> 100 µM	> 100 µM	> 100 µM	> 100 µM	> 100 µM	> 100 µM	> 100 µM	> 100 µM	> 100 µM	60.3 µM	> 100 µM	50.3 µM	> 100 µM
COc1ccc(-c2cc(Nc3ccnc(N4CCOCC4)n3)on2)cc1	0.372 µM	16.8 µM	0.516 µM	29.1 µM	0.267 µM	> 34.5 µM	0.289 µM	17.4 µM	0.245 µM	16.9 µM	0.7 µM	16.6 µM	0.302 µM	13.4 µM	0.751 µM	9.82 µM	1.72 µM	18.5 µM	1.85 µM	18.1 µM
C=C1C(O)C2C(=C(C)C13CC3)C(=O)C(C)(C)C2OC (centres undefined)	> 100 µM	> 100 µM	> 100 µM	> 100 µM	78.3 µM	> 100 µM	> 100 µM	> 100 µM	> 100 µM	> 100 µM	> 100 µM	> 100 µM	> 100 µM	> 100 µM	> 100 µM	> 100 µM	> 100 µM	> 100 µM	> 100 µM	> 100 µM
O=C(N/N=C/c1ccc(O)cc1O)c1cccnc1	13.4 µM	> 100 µM	5.92 µM	> 100 µM	0.971 µM	> 100 µM	5.16 µM	39.2 µM	0.776 µM	23.6 µM	3.58 µM	69 µM	3.45 µM	> 100 µM	4.58 µM	84.3 µM	0.692 µM	11.9 µM	2.22 µM	59.4 µM
O=C1/C(=C/N2N=C(c3ccc4ccccc4c3)CC2c2ccccc2O)SC(=S)N1c1cccnc1 (centres undefined)	2.49 µM	> 100 µM	3.03 µM	> 100 µM	0.625 µM	> 100 µM	5.2 µM	> 100 µM	1.47 µM	> 100 µM	2.22 µM	> 100 µM	1.5 µM	> 100 µM	4.9 µM	> 100 µM	4.41 µM	> 100 µM	4.08 µM	> 100 µM
CCOC(=O)C1=C(N)Oc2c(sc3c(C)cccc23)C1c1ccc(F)cc1 (centres undefined)	0.618 µM	20.1 µM	0.808 µM	14.3 µM	0.559 µM	21.6 µM	0.588 µM	20.8 µM	0.475 µM	13.5 µM	1.11 µM	14.5 µM	0.849 µM	13.5 µM	0.579 µM	10.6 µM	3.33 µM	18.3 µM	1.61 µM	19.4 µM
O=C(NNc1cnccn1)c1nc2cc(F)ccc2n2cccc12	0.364 µM	> 100 µM	0.765 µM	> 100 µM	0.211 µM	> 100 µM	1.06 µM	> 100 µM	0.503 µM	> 100 µM	0.925 µM	> 100 µM	0.745 µM	> 100 µM	1.57 µM	> 100 µM	0.211 µM	0.964 µM	0.551 µM	> 100 µM
CC(=O)NC1CONC1=O (centres undefined)	–	> 100 µM	–	> 100 µM	–	> 100 µM	–	> 100 µM	–	> 100 µM	–	> 100 µM	–	> 100 µM	–	> 100 µM	–	> 100 µM	–	> 100 µM
COc1ccc(-c2nn(-c3cccc(Cl)c3)cc2-c2nc(N)[nH]c(=O)c2C#N)cc1	10.1 µM	26.2 µM	5.44 µM	46.2 µM	3.65 µM	33.8 µM	5.83 µM	40.6 µM	3.01 µM	18.1 µM	6.41 µM	> 100 µM	17.9 µM	70.1 µM	6.23 µM	70.3 µM	7.71 µM	61.9 µM	5.86 µM	35.4 µM
Oc1ccc(N=Nc2nccs2)c(O)c1	19.9 µM	49.8 µM	5.36 µM	28.7 µM	2.48 µM	8.99 µM	14.7 µM	34.3 µM	4.14 µM	15.2 µM	9.42 µM	38.7 µM	5.23 µM	17.1 µM	12.4 µM	45.1 µM	3.46 µM	> 100 µM	4.35 µM	38.7 µM
NC(N)=N/N=C(\N=Nc1ccccc1)c1ccc(Cl)cc1	5.1 µM	18.8 µM	14.4 µM	30 µM	1.76 µM	5.78 µM	4.68 µM	17.2 µM	7.32 µM	23 µM	4.65 µM	22.1 µM	7.38 µM	21.3 µM	3.66 µM	18.8 µM	1.79 µM	12.6 µM	3.53 µM	15.7 µM
COc1cc(/C=C/C(=O)C(C(=O)/C=C/c2ccc(OC(=O)CCNC34CC5CC(CC(C5)C3)C4)c(OC)c2)C(=O)CCNC23CC4CC(CC(C4)C2)C3)ccc1OC(=O)CCNC12CC3CC(CC(C3)C1)C2 (centres undefined)	9.12 µM	> 100 µM	5.02 µM	> 100 µM	1.65 µM	4.12 µM	2.44 µM	9.92 µM	–	–	2.85 µM	9.48 µM	2.21 µM	5.02 µM	3.21 µM	12.5 µM	8.89 µM	57.1 µM	2.7 µM	10.9 µM
NC(=O)CNc1ccc([As]=[As]c2ccc(NCC(N)=O)cc2)cc1 (centres undefined)	3.94 µM	14.6 µM	8.1 µM	31.1 µM	0.706 µM	73.6 µM	2.62 µM	9.71 µM	3.37 µM	23.8 µM	–	–	6.48 µM	35 µM	5.62 µM	22.8 µM	2.61 µM	49.7 µM	2.73 µM	14 µM
COC(=O)C(=O)CC(=O)c1cccc(OC)c1	–	> 100 µM	–	> 100 µM	–	> 100 µM	–	> 100 µM	–	–	–	> 100 µM	–	> 100 µM	–	> 100 µM	–	> 100 µM	–	> 100 µM
